Assay results from US8486381B2, “Methods of modulating intestinal fluid balance” (Amgen Inc., priority 2005, dated 2013).

Tested on: cyclic GMP
Assay: Secretagogue-stimulated cyclic GMP accumulation in colonic crypt cell suspensions
Type: cell-based

Question: For [Ca+2] [Ca^2+], which “Effect on Guanylin or STa induced cyclic GMP production” value is on record?
Answer: Its value is “attenuates”.
